Tests used:
Vγ9Vδ2 T-cells = experiment: Ex-vivo expansion of Vγ9Vδ2 T-cells from PBMC; type: cell-based, human
Protocol: To enrich these cells, peripheral blood mononuclear cells (PBMC) were activated with ZA and cultured in AB serum-containing RPMI 1640 medium, supplemented with IL-2/IL-15. Specifically, PBMC isolated from normal (healthy) donors (n=21 separate donors) and from patients with EOC (n=13 separate donors) were cultured with ZA (1 μg/ml day 1 only), IL-2 (100 U/ml) and IL-15 (10 ng/ml). Cytokines and medium were added daily.
Isolated PBMC cells were then reconstituted in GMP TexMACS Media (Miltenyi) at 3×10^6 cell/mL. To the reconstituted cells, 1 μg/mL Zoledronic Acid (Zometa, Novartis) was added as an activator, together with 100 U/mL IL-2 and 5 ng/mL TGF-β. The cells were incubated at 37° C. in air containing 5% carbon dioxide.
On day 3, cells were fed with 100 U/mL IL-2 and 5 ng/mL TGF-β. Thereafter, on days 4, 7, 9, 11, 13, 15, cells were counted by trypan exclusion using a hemocytometer. If the number of T-cells was less than 1×10^6 cells/mL, a further 100 U/mL IL-2 and 5 ng/mL TGF-β were added. If the number of T-cells was between 1×10^6 and 2×10^6 cells/mL, an equivalent volume of TexMACS medium was added together with 100 U/mL IL-2 and 5 ng/mL TGF-β. If the number of T-cells was greater than 2×10^6 […], double the volume of TexMACS media was added together with 100 U/mL IL-2 and 5 ng/mL TGF-β.
After 15 days, the cells were analyzed by flow cytometry with a pan γδ antibody to confirm the enrichment of γδ T-cells in these cultures.
The methodology of Example 1 above was repeated using a different basic medium, specifically RPMI+human AB serum. In particular, PBMC (3×10^6 cells/ml) were cultured in RPMI+10% human AB serum containing zoledronic acid (1 μg/ml)+IL-2 (100 U/ml; method 1) or zoledronic acid (1 μg/ml)+IL-2 (100 U/ml)+TGF-β (5 ng/ml; method 2). The percentage of γδ T-cells present in each culture was evaluated on the day of initiation of the cultures (day 1) and after a further 14 days (day 15) and the results are shown in FIG. 9B.

[1] = system: U937 tumor cells or KG-1 tumor cells; experiment: Cytotoxicity assay (luciferase) with cytarabine-pulsed tumor cells, 1:1 effector:target; type: cell-based; conditions: sub-lethal doses, 24 h pulse before T-cells
Protocol: Cytotoxicity assays were established in triplicate at a 1:1 effector:target ratio in 96 well plates containing either U937 tumor cells or KG-1 tumor cells. Where indicated, tumor cells were pulsed for 24 h with the indicated concentrations of cytarabine, prior to addition of γδ T-cells, produced either using the method of the invention (M2) or the method of the comparative example (M1) above. There were three donors for the M2 cells and two donors for the M1 cells. A control group received no cytarabine.
Residual tumor cell viability was measured after overnight co-culture with Vγ9Vδ2 T-cells by luciferase assay.

IL-15: cytokine supplement (10 ng/ml) in comparative expansion
yield of cells on addition of IL-15 (Vγ9Vδ2 T-cells; RPMI 1640 with AB serum, ZA + IL-2, IL-15 10 ng/ml): no significant difference

Nc1ccn([C@@H]2O[C@H](CO)[C@@H](O)[C@@H]2O)c(=O)n1 [cytarabine]
effect of cytarabine on anti-tumor activity of method 2 Vγ9Vδ2 T-cells [1]: potentiated the anti-tumor activity

TGF-β
cell expansion on addition of TGF-β (Vγ9Vδ2 T-cells; RPMI + 10% human AB serum, ZA + IL-2, 5 ng/ml TGF-β, day 15): enhanced cell expansion | yield of Vγ9Vδ2 T-cells on addition of TGF-β (Vγ9Vδ2 T-cells; TexMACS medium, ZA + IL-2, 5 ng/mL TGF-β, 15 days): substantially enhanced yields

— US11566222B2, “γδ T cell expansion procedure” (KING'S COLLEGE LONDON, priority 2014, dated 2023)
